# Data reported in patent US20260374756A1, “HETEROCYCLIC COMPOUNDS AS INHIBITORS OF MONOACYLGLYCEROL LIPASE (MAGL)” (Hoffmann-La Roche Inc., priority 2022, published 2026).
# Biological target: T1, hMAGL (Homo sapiens, UniProt Q99685)
# T1 sequence (Q99685 1-303): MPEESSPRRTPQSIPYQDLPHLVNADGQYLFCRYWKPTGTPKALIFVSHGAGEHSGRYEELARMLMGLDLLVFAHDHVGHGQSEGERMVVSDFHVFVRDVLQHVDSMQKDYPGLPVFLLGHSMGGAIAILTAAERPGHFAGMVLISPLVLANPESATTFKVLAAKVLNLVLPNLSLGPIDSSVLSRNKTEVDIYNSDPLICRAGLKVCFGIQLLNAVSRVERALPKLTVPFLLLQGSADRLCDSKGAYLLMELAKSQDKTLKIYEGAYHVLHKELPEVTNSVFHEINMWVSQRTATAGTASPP
# Experiment: 2-AG assay: MAGL inhibition, hydrolysis of 2-arachidonoylglycerol to arachidonic acid followed by mass spectrometry
# Assay type: biochemical
# Outline: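 Read-out is LC-MS/MS of arachidonic acid released from 2-arachidonoylglycerol (8 μM final), normalised to d8-arachidonic acid internal standard after acetonitrile quench. Enzyme […] and compound were pre-mixed 15 min, then reacted 30 min, both at RT, in Tris/EDTA buffer with 0.01% Tween-20 and 2.5% DMSO.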
row,SMILES,IC50 [nM]
1,"O=C(N1CC2(CC(c3cc(C4CC4)n[nH]3)C2)C1)N1CC2(CN(Cc3nc(C(F)(F)F)co3)C2)C1 [Example 215, [6-(3-cyclopropyl-1H-pyrazol-5-yl)-2-azaspiro[3.3]heptan-2-yl]-[6-[[4-(trifluoromethyl)oxazol-2-yl]methyl]-2,6-diazaspiro[3.3]heptan-2-yl]methanone]",20
2,O=C(N1CC2(CC(n3cnc(C(F)(F)F)n3)C2)C1)N1CC2(CN(Cc3nc(C(F)(F)F)co3)C2)C1 [Example 216],102
3,"O=C(N1CC2(CC(n3cnc(C4CC4)n3)C2)C1)N1CC2(CN(Cc3nc(C(F)(F)F)co3)C2)C1 [Example 217, [6-(3-cyclopropyl-1,2,4-triazol-1-yl)-2-azaspiro[3.3]heptan-2-yl]-[6-[[4-(trifluoromethyl)oxazol-2-yl]methyl]-2,6-diazaspiro[3.3]heptan-2-yl]methanone]",13.7
4,"O=C(N1CC2(CC(n3cnc(C(F)(F)F)n3)C2)C1)N1CC2(CN(Cc3conc3C(F)(F)F)C2)C1 [Example 218, [6-[[3-(trifluoromethyl)isoxazol-4-yl]methyl]-2,6-diazaspiro[3.3]heptan-2-yl]-[6-[3-(trifluoromethyl)-1,2,4-triazol-1-yl]-2-azaspiro[3.3]heptan-2-yl]methanone]",31.9
5,"O=C(N1CC2(CC(n3cnc(C4CC4)n3)C2)C1)N1CC2(CN(Cc3conc3C(F)(F)F)C2)C1 [Example 219, [6-(3-cyclopropyl-1,2,4-triazol-1-yl)-2-azaspiro[3.3]heptan-2-yl]-[6-[[3-(trifluoromethyl)isoxazol-4-yl]methyl]-2,6-diazaspiro[3.3]heptan-2-yl]methanone]",8.82
6,O=C(N1CC2(CC(n3cnc(C(F)(F)F)n3)C2)C1)N1CC2(CN(Cc3ncoc3C(F)(F)F)C2)C1 [Example 220],178
7,"O=C(N1CC2(CC(n3cnc(C4CC4)n3)C2)C1)N1CC2(CN(Cc3ncoc3C(F)(F)F)C2)C1 [Example 221, [6-(3-cyclopropyl-1,2,4-triazol-1-yl)-2-azaspiro[3.3]heptan-2-yl]-[6-[[5-(trifluoromethyl)oxazol-4-yl]methyl]-2,6-diazaspiro[3.3]heptan-2-yl]methanone]",32.6
8,O=C(N1CC2(CC(n3cnc(C(F)(F)F)n3)C2)C1)N1CC2(CN(Cc3ccnn3CC(F)(F)F)C2)C1 [Example 222],205
9,"O=C(N1CC2(CC(n3cnc(C4CC4)n3)C2)C1)N1CC2(CN(Cc3ccnn3CC(F)(F)F)C2)C1 [Example 223, [6-(3-cyclopropyl-1,2,4-triazol-1-yl)-2-azaspiro[3.3]heptan-2-yl]-[6-[[2-(2,2,2-trifluoroethyl)pyrazol-3-yl]methyl]-2,6-diazaspiro[3.3]heptan-2-yl]methanone]",69.2
10,"O=C(N1CC2(CC(c3cc(C4CC4)n[nH]3)C2)C1)N1CC2(CN(Cc3ccnn3C(F)(F)F)C2)C1 [Example 224, [6-(3-cyclopropyl-1H-pyrazol-5-yl)-2-azaspiro[3.3]heptan-2-yl]-[6-[[2-(trifluoromethyl)pyrazol-3-yl]methyl]-2,6-diazaspiro[3.3]heptan-2-yl]methanone]",20.2
11,"O=C(N1CC2(CC(n3cnc(C(F)(F)F)n3)C2)C1)N1CC2(CN(Cc3ccnn3C(F)(F)F)C2)C1 [Example 225, [6-[[2-(trifluoromethyl)pyrazol-3-yl]methyl]-2,6-diazaspiro[3.3]heptan-2-yl]-[6-[3-(trifluoromethyl)-1,2,4-triazol-1-yl]-2-azaspiro[3.3]heptan-2-yl]methanone]",146
12,"O=C(N1CC2(CC(n3cnc(C4CC4)n3)C2)C1)N1CC2(CN(Cc3ccnn3C(F)(F)F)C2)C1 [Example 226, [6-(3-cyclopropyl-1,2,4-triazol-1-yl)-2-azaspiro[3.3]heptan-2-yl]-[6-[[2-(trifluoromethyl)pyrazol-3-yl]methyl]-2,6-diazaspiro[3.3]heptan-2-yl]methanone]",34.6
13,"Cn1ncc(P(C)(C)=O)c1CN1CC2(C1)CN(C(=O)N1CC3(CC(n4cnc(C(F)(F)F)n4)C3)C1)C2 [Example 227, [6-[(4-dimethylphosphoryl-2-methyl-pyrazol-3-yl)methyl]-2,6-diazaspiro[3.3]heptan-2-yl]-[6-[3-(trifluoromethyl)-1,2,4-triazol-1-yl]-2-azaspiro[3.3]heptan-2-yl]methanone]",1380
14,"Cn1ncc(P(C)(C)=O)c1CN1CC2(C1)CN(C(=O)N1CC3(CC(n4cnc(C5CC5)n4)C3)C1)C2 [Example 228, [6-(3-cyclopropyl-1,2,4-triazol-1-yl)-2-azaspiro[3.3]heptan-2-yl]-[6-[(4-dimethylphosphoryl-2-methyl-pyrazol-3-yl)methyl]-2,6-diazaspiro[3.3]heptan-2-yl]methanone]",210
15,"O=C(N1CC2(CC(n3cnc(C(F)(F)F)n3)C2)C1)N1CC2(CN(Cc3nc(C(F)(F)F)n[nH]3)C2)C1 [Example 229, [6-[3-(trifluoromethyl)-1,2,4-triazol-1-yl]-2-azaspiro[3.3]heptan-2-yl]-[6-[[3-(trifluoromethyl)-1H-1,2,4-triazol-5-yl]methyl]-2,6-diazaspiro[3.3]heptan-2-yl]methanone]",1200
16,"O=C(N1CC2(CC(n3cnc(C4CC4)n3)C2)C1)N1CC2(CN(Cc3nc(C(F)(F)F)n[nH]3)C2)C1 [Example 230, [6-(3-cyclopropyl-1,2,4-triazol-1-yl)-2-azaspiro[3.3]heptan-2-yl]-[6-[[3-(trifluoromethyl)-1H-1,2,4-triazol-5-yl]methyl]-2,6-diazaspiro[3.3]heptan-2-yl]methanone]",672
17,"O=C(N1CC2(CC(n3cnc(C(F)(F)F)n3)C2)C1)N1CC2(CN(Cc3ncc(C(F)(F)F)[nH]3)C2)C1 [Example 231, [6-[[5-(trifluoromethyl)-1H-imidazol-2-yl]methyl]-2,6-diazaspiro[3.3]heptan-2-yl]-[6-[3-(trifluoromethyl)-1,2,4-triazol-1-yl]-2-azaspiro[3.3]heptan-2-yl]methanone]",260
18,"O=C(N1CC2(CC(n3cnc(C4CC4)n3)C2)C1)N1CC2(CN(Cc3ncc(C(F)(F)F)[nH]3)C2)C1 [Example 232, [6-(3-cyclopropyl-1,2,4-triazol-1-yl)-2-azaspiro[3.3]heptan-2-yl]-[6-[[5-(trifluoromethyl)-1H-imidazol-2-yl]methyl]-2,6-diazaspiro[3.3]heptan-2-yl]methanone]",79.8
19,"O=C(N1CC2(CC(n3cnc(C(F)(F)F)n3)C2)C1)N1CC2(CN(Cc3nccn3CC(F)(F)F)C2)C1 [Example 233, [6-[[1-(2,2,2-trifluoroethyl)imidazol-2-yl]methyl]-2,6-diazaspiro[3.3]heptan-2-yl]-[6-[3-(trifluoromethyl)-1,2,4-triazol-1-yl]-2-azaspiro[3.3]heptan-2-yl]methanone]",176
20,"O=C(N1CC2(CC(n3cnc(C4CC4)n3)C2)C1)N1CC2(CN(Cc3nccn3CC(F)(F)F)C2)C1 [Example 234, [6-(3-cyclopropyl-1,2,4-triazol-1-yl)-2-azaspiro[3.3]heptan-2-yl]-[6-[[1-(2,2,2-trifluoroethyl)imidazol-2-yl]methyl]-2,6-diazaspiro[3.3]heptan-2-yl]methanone]",41.3
21,"O=C(N1CC2(CC(n3cnc(C(F)(F)F)n3)C2)C1)N1CC2(CN(Cc3nccn3C(F)(F)F)C2)C1 [Example 235, [6-[[1-(trifluoromethyl)imidazol-2-yl]methyl]-2,6-diazaspiro[3.3]heptan-2-yl]-[6-[3-(trifluoromethyl)-1,2,4-triazol-1-yl]-2-azaspiro[3.3]heptan-2-yl]methanone]",68.7
